Laboratory results taken from US20230103444A1 (The Regents of the University of Colorado, a Body Corporate, priority 2020, published 2023).
Values after ≈ are worked out from the molar mass of the structure shown. Values joined by “and” are separate entries in the source; they are usually repeats but may differ in a detail not shown here. Identical values can stand only once. “Also recorded” adds a separate entry of the source.

Key:
[1] = system: SW620 cells; assay: Annexin V-FITC apoptosis assay; format: cell-based, human; details: 12 h, compared to DMSO; positive control SN-38
Protocol: SW620 cells were plated at 30,000 cells/well in 96-well plates. […] Cells were then rinsed 2× with cold PBS, 1× with cold Annexin-V staining buffer (10 mM HEPES, pH 7.4, 140 mM NaCl, 2.5 mM CaCl2), and then incubated with Annexin-V FITC at 1:100 for 30 min in the dark. Cells were then rinsed 2× with Annexin-V staining buffer and FITC intensity was measured using an EnVision® plate reader (PerkinElmer, Hopkinton, Mass.).

[2] = system: PDTO CRC102; assay: PDTO viability assay (CellTiter-Blue); format: cell-based; details: Homo sapiens, 72 h, read-out: cytotoxicity EC50
Protocol: CRC patient tumor tissues were obtained from the UCCC GI tissue bank and expanded following established protocols. [Morin et al., 1997]. Briefly, cells were seeded at 5,000 cells per well in 96-well plates and cultured by established methods [Franken et al., 2006] allowing PDTO formation over 72 h. […] PDTO cell viability was measured using CellTiter-Blue® reagent (Promega, Madison, Wis.). Media (80 μL) was aspirated from wells and 80 μL of the reagent was added and incubated for 4 h and cell viability was measured by fluorescence intensity using excitation 560 excitation and 590 emission.

[3] = Aqueous solubility in PBS; format: physicochemical; details: aqueous with cosolvent or surfactant or cyclodextrin; 10% DMSO in PBS (pH 7.4)
Protocol: The measurement of solubility in PBS was conducted in duplicate experiments. The consensus LogP (CLogP) values were obtained using the SwissADME web tools. [Daina et al., 2017]

[4] = Pharmacokinetics in CD-1 mice
Protocol: Whole blood was harvested at specific time points and the separated plasma frozen at −80° C. for storage or used for LC-MS/MS analysis.

[5] = Liver toxicity, histological evaluation; format: in vivo, athymic nude mice; design: key to Liver Inflammation score: 0 = none; 1 = minimal; 2 = mild; 3 = moderate; 4 = severe; key to Liver Assessment: N = normal background lesion for mouse strain; A = abnormal; details: for liver toxicity, in words: 50 mg/kg i.p. QD 5 days
Protocol: Two million VimPro-GFP SW620 cells suspended in 100 μL of a 1:1 mixture of Matrigel® matrix (Corning Life Sciences, Corning, N.Y.) and RPMI 1640 were injected into the flanks of 9-week old female athymic nude mice (Nude-Foxn1nu (069)) (Envigo, Huntingdon, Cambridgeshire, UK). Growth was monitored with caliper measurements 3× per week. […] Treatments were administered i.p. QD over five days. Mice were sacrificed 2 h after the final dose on day five of the treatment.

[6] = system: VimPro-GFP SW620 xenograft tumors; assay: Pharmacodynamic Western blot of xenograft tumor tissue; format: in vivo, athymic nude mice; details: 50 mg/kg i.p. QD 5 days
Protocol: CRC cell lines and homogenized tumor tissue samples from mice were resuspended in RIPA lysis buffer (20 mM Tris-HCl (pH 7.5), 150 mM NaCl, 1 mM Na2EDTA, 1 mM EGTA, 1% NP-40, 1% sodium deoxycholate, 2.5 mM sodium pyrophosphate, 1 mM b-glycerophosphate, 1 mM Na3VO4, 0.1 mM PMSF. Protein concentration was determined using the Pierce™ BCA protein assay kit (ThermoFisher, Waltham, Mass.). Forty micrograms of sample were run on 10% Bis-Tris gels. Following electrophoresis, the proteins were transferred to a nitrocellulose membrane. The membranes were blocked at room temperature with 5% non-fat milk in TBS/Tween® 20 (TBST contains 20 mM Tris, 150 mM NaCl, and 0.1% Tween®20 (Croda International PLC, Snaith, UK) for 1 hour at room temperature. Membranes were washed three times with TBST. Blots were incubated with the appropriate primary antibody in 5% nonfat milk in TBST overnight at 4° C. Membranes were washed three times with TBST and then incubated with appropriate secondary antibody for one hour. Membranes were washed again with TBST three times. […]
Two million VimPro-GFP SW620 cells suspended in 100 μL of a 1:1 mixture of Matrigel® matrix (Corning Life Sciences, Corning, N.Y.) and RPMI 1640 were injected into the flanks of 9-week old female athymic nude mice (Nude-Foxn1nu (069)) (Envigo, Huntingdon, Cambridgeshire, UK). Growth was monitored with caliper measurements 3× per week. […]

[7] = system: CRC042 patient-derived tumor organoids; assay: Patient tumor organoid cytotoxicity; format: cell-based; details: Homo sapiens; single agent, Table 4A
[8] = system: CRC102 patient-derived tumor organoids; assay: Patient tumor organoid cytotoxicity; format: cell-based; details: Homo sapiens; single agent, Table 4A
Protocol: Patient Cell Tumor Organoid Culture. CRC048 and CRC102 patient cell samples were expanded and cultured as PDTOs using reported methodologies and reagents. (Drost et al., 2016; Sato et al., 2011) Briefly, patient cells were washed with PBS, digested with TrypLE, and filtered through 100 μm cell strainer before used in 3D cell culture. Patient cells were seeded at 5,000 cells per well in 96-well plates, coated with 2% Matrigel, and allowed to self-assemble as PDTOs over 72 h.
Tumor Organoid Cytotoxicity.

Cc1cc(Nc2ccc(NC(=O)Cc3cccs3)cc2)nc(N2CCCC2)n1 [Compound 6, N-(4-((6-methyl-2-(pyrrolidin-1-yl)pyrimidin-4-yl)amino)phenyl)-2-(thiophen-2-yl)acetamide]
apoptosis (annexin-V staining) [1]: induced significant apoptosis | EC50 [2]: 11.6 ± 2 µM | solubility [3]: 700 µg/mL (≈ 1780 µM) | AUC(0-t) ([4]; female, CD-1, mouse, plasma, ip, 50 mg/kg): 80300 ng·h/mL | Cmax ([4]; female, CD-1, mouse, plasma, ip, 50 mg/kg, CMax (ng/mL), single i.p. 50 mg/kg): ~30000 ng/mL | CMax (ng/mL) ([4]; plasma, single i.p. 50 mg/kg, 50 mg/kg): 29,900 ng/mL | CL ([4]; single i.p. 50 mg/kg): 10.3 mL/min/kg | V2 ([4]; single i.p. 50 mg/kg): 2.7 L/kg | Liver Assessment ([5]; 50 mg/kg QD 5 days, one line per animal, listed as Compound 6.0): N (2×) and A (2×) | Liver Inflammation score ([5]; 50 mg/kg QD 5 days, one line per animal, scored if abnormal): 1 | liver toxicity, in words [5]: no evidence of hepatocyte degeneration, necrosis, hyperplasia, or parenchymal inflammation | liver toxicity, in words ([5]; listed as 6.0): no apparent liver toxicity; also recorded: does not display any liver toxicity | epithelial marker ZO-1 and cleaved caspase 3 in tumor tissue [6]: not statistically significant, upregulation of the epithelial marker ZO-1 and induction of cleaved caspase 3 | mesenchymal markers vimentin, vimentin reporter (VimPro-GFP) and slug in tumor tissue [6]: significant downregulation | IC50 [7]: 18.6 µM | IC50 [8]: 22.6 µM
